# Test results taken from patent publication US10251854B2, “S-(carboxymethyl)-cysteine pharmaceutical compound and preparation method and use thereof” (Guangzhou Baiyunshan Pharmaceutical Holdings Co., Ltd. …, priority 2013, dated 2019).
# Assays:
# Assay type in all cases: in vivo
# Conditions in all cases: x ± SD
# rat COPD model [1] = assay: Rat COPD model: inflammation indexes (TNF-α, IL-8, IL-6)
# Protocol: (§1) 1.1 Preparation of Rat COPD Models
# (§2) A method of establishing a rat COPD model by fumigation plus endotoxin lipopolysaccharide (LPS) endotracheal drop, which is commonly used at home and abroad at present was adopted. The period is 3 months (90 days). Specific method: on the 1st, the 15th, the 29th, the 43rd, the 57th, the 71st and the 85th days of the test, the rats were anesthetized with ethylether, the roots of tongues of the rats were pulled out, and LPS (200 ug/200 ul) was dripped through tracheas by bend gavage needle heads. The rats of the normal group were dripped with physiological saline of equal amount by the same method, and weren't fumigated. The rats of the other five groups were fumigated in a self-made fumigation bin. One side of the fumigation bin was externally connected with a negative pressure pump, and the top thereof was connected with a port for inserting cigarettes. With the negative press pump turned on, the cigarettes were lit, and the smoke of the cigarettes was absorbed into the fumigation bin. In order to prevent the animals from death caused by anoxia, 12 cigarettes were lit every time, and the lid of the fumigation bin was opened 20 min after fumigation for letting in fresh air. The operation was performed 1 h/3 times/day, with the LPS (200 ug/200 ul) being dripped through the tracheas by bend gavage needle heads.
# (§3) 1.2 Pharmacological Intervention
# (§4) The test was 90 days long. The pharmacological intervention was started from the 15th day, the rats of the positive group were perfused with carbocisteine, the rats of the low, medium and high test groups were perfused with different doses of test medicines, and the rats of the model group and the normal group were perfused with physiological saline of equal amount.
# (§5) 1.3 Indexes Determination
# (§6) Blood was taken from the orbit of each rat on the second day after the test was over, serum was separated, a complete stomach was cut and washed, lung tissue was preserved, the stomach and the right upper lung were left for pathobiology test, after the rest of the lung was subjected to lung tissue homogenate, the indexes of oxidization and antioxidation, the contents of lipid peroxide (LPO), malondialdehyde (MDA) and reduced glutathione (GSH), the activity of superoxide dismutase (SOD) and the concentration of inflammatory medium TNF-α, IL-8 and IL-6 were detected.
# rat COPD model [2] = assay: Rat COPD model: oxidization indexes (LPO, MDA)
# Protocol: as §1, §2, §3, §4, §5, §6
# rat COPD model [3] = assay: Rat COPD model: antioxidation indexes (GSH, SOD)
# Protocol: as §1, §2, §3, §4, §5, §6
molecule,measurement,setting,value
"N.N.N[C@H](CSCC(=O)O)C(=O)O.O [D-ammonium, S-(carboxymethyl)-D-cysteine ammonium salt monohydrate]",IL-6 Lung tissue,rat COPD model [1]; high dose group,13.83 ± 6.19 pg/mL
same,IL-6 Serum,rat COPD model [1]; high dose group,7.93 ± 3.10 pg/mL
same,IL-8 Lung tissue,rat COPD model [1]; high dose group,11.44 ± 1.64 pg/mL
same,IL-8 Serum,rat COPD model [1]; high dose group,7.38 ± 1.54 pg/mL
same,TNF-α Lung tissue,rat COPD model [1]; high dose group,21.33 ± 8.57 pg/mL
same,TNF-α Serum,rat COPD model [1]; high dose group,17.19 ± 4.05 pg/mL
same,IL-6 Lung tissue,rat COPD model [1]; low dose group,16.36 ± 4.78 pg/mL
same,IL-6 Serum,rat COPD model [1]; low dose group,10.76 ± 2.90 pg/mL
same,IL-8 Lung tissue,rat COPD model [1]; low dose group,13.09 ± 2.98 pg/mL
same,IL-8 Serum,rat COPD model [1]; low dose group,8.56 ± 2.79 pg/mL
same,TNF-α Lung tissue,rat COPD model [1]; low dose group,28.26 ± 12.06 pg/mL
same,TNF-α Serum,rat COPD model [1]; low dose group,21.12 ± 4.11 pg/mL
same,IL-6 Lung tissue,rat COPD model [1]; medium dose group,15.61 ± 4.40 pg/mL
same,IL-6 Serum,rat COPD model [1]; medium dose group,9.09 ± 3.23 pg/mL
same,IL-8 Lung tissue,rat COPD model [1]; medium dose group,11.90 ± 1.77 pg/mL
same,IL-8 Serum,rat COPD model [1]; medium dose group,8.05 ± 1.72 pg/mL
same,TNF-α Lung tissue,rat COPD model [1]; medium dose group,25.02 ± 10.89 pg/mL
same,TNF-α Serum,rat COPD model [1]; medium dose group,19.86 ± 3.58 pg/mL
same,LPO Lung tissue,rat COPD model [2]; high dose group,17.33 ± 4.07 nmol/mL
same,LPO Serum,rat COPD model [2]; high dose group,4.97 ± 1.74 nmol/mL
same,MDA Lung tissue,rat COPD model [2]; high dose group,4.35 ± 0.63 µmol/mL
same,MDA Serum,rat COPD model [2]; high dose group,7.05 ± 1.59 µmol/mL
same,LPO Lung tissue,rat COPD model [2]; low dose group,20.35 ± 3.70 nmol/mL
same,LPO Serum,rat COPD model [2]; low dose group,6.07 ± 1.55 nmol/mL
same,MDA Lung tissue,rat COPD model [2]; low dose group,5.12 ± 1.11 µmol/mL
same,MDA Serum,rat COPD model [2]; low dose group,8.28 ± 2.09 µmol/mL
same,LPO Lung tissue,rat COPD model [2]; medium dose group,18.38 ± 2.86 nmol/mL
same,LPO Serum,rat COPD model [2]; medium dose group,5.20 ± 0.96 nmol/mL
same,MDA Lung tissue,rat COPD model [2]; medium dose group,4.90 ± 0.43 µmol/mL
same,MDA Serum,rat COPD model [2]; medium dose group,7.75 ± 1.93 µmol/mL
same,GSH Lung tissue,rat COPD model [3]; high dose group,120.13 ± 25.76 µmol/L
same,GSH Serum,rat COPD model [3]; high dose group,158.76 ± 29.50 µmol/L
same,SOD Lung tissue,rat COPD model [3]; high dose group,70.51 ± 20.90 U/mL
same,SOD Serum,rat COPD model [3]; high dose group,98.28 ± 19.15 U/mL
same,GSH Lung tissue,rat COPD model [3]; low dose group,94.54 ± 17.50 µmol/L
same,GSH Serum,rat COPD model [3]; low dose group,120.16 ± 17.05 µmol/L
same,SOD Lung tissue,rat COPD model [3]; low dose group,52.17 ± 16.44 U/mL
same,SOD Serum,rat COPD model [3]; low dose group,72.30 ± 12.66 U/mL
same,GSH Lung tissue,rat COPD model [3]; medium dose group,109.68 ± 24.63 µmol/L
same,GSH Serum,rat COPD model [3]; medium dose group,131.33 ± 24.17 µmol/L
same,SOD Lung tissue,rat COPD model [3]; medium dose group,60.31 ± 14.12 U/mL
same,SOD Serum,rat COPD model [3]; medium dose group,88.85 ± 17.47 U/mL
S-(carboxymethyl)-L-cysteine arginine salt monohydrate [L-arginine],IL-6 Lung tissue,rat COPD model [1]; high dose group,12.77 ± 4.65 pg/mL
same,IL-6 Serum,rat COPD model [1]; high dose group,6.69 ± 1.92 pg/mL
same,IL-8 Lung tissue,rat COPD model [1]; high dose group,9.09 ± 1.89 pg/mL
same,IL-8 Serum,rat COPD model [1]; high dose group,6.24 ± 1.89 pg/mL
same,TNF-α Lung tissue,rat COPD model [1]; high dose group,20.36 ± 7.41 pg/mL
same,TNF-α Serum,rat COPD model [1]; high dose group,15.7 ± 5.16 pg/mL
same,IL-6 Lung tissue,rat COPD model [1]; low dose group,15.80 ± 6.02 pg/mL
same,IL-6 Serum,rat COPD model [1]; low dose group,9.17 ± 3.08 pg/mL
same,IL-8 Lung tissue,rat COPD model [1]; low dose group,11.88 ± 303 pg/mL
same,IL-8 Serum,rat COPD model [1]; low dose group,8.56 ± 2.33 pg/mL
same,TNF-α Lung tissue,rat COPD model [1]; low dose group,26.17 ± 8.33 pg/mL
same,TNF-α Serum,rat COPD model [1]; low dose group,20.22 ± 4.77 pg/mL
same,IL-6 Lung tissue,rat COPD model [1]; medium dose group,14.22 ± 5.13 pg/mL
same,IL-6 Serum,rat COPD model [1]; medium dose group,7.66 ± 2.83 pg/mL
same,IL-8 Lung tissue,rat COPD model [1]; medium dose group,9.98 ± 2.43 pg/mL
same,IL-8 Serum,rat COPD model [1]; medium dose group,7.39 ± 2.02 pg/mL
same,TNF-α Lung tissue,rat COPD model [1]; medium dose group,23.65 ± 11.21 pg/mL
same,TNF-α Serum,rat COPD model [1]; medium dose group,18.6 ± 3.89 pg/mL
same,LPO Lung tissue,rat COPD model [2]; high dose group,16.09 ± 3.22 nmol/mL
same,LPO Serum,rat COPD model [2]; high dose group,4.25 ± 0.99 nmol/mL
same,MDA Lung tissue,rat COPD model [2]; high dose group,3.96 ± 0.57 µmol/mL
same,MDA Serum,rat COPD model [2]; high dose group,6.79 ± 1.83 µmol/mL
same,LPO Lung tissue,rat COPD model [2]; low dose group,19.66 ± 3.90 nmol/mL
same,LPO Serum,rat COPD model [2]; low dose group,5.78 ± 1.65 nmol/mL
same,MDA Lung tissue,rat COPD model [2]; low dose group,4.77 ± 0.72 µmol/mL
same,MDA Serum,rat COPD model [2]; low dose group,8.02 ± 1.54 µmol/mL
same,LPO Lung tissue,rat COPD model [2]; medium dose group,17.78 ± 2.98 nmol/mL
same,LPO Serum,rat COPD model [2]; medium dose group,4.87 ± 1.90 nmol/mL
same,MDA Lung tissue,rat COPD model [2]; medium dose group,4.40 ± 0.60 µmol/mL
same,MDA Serum,rat COPD model [2]; medium dose group,7.34 ± 2.44 µmol/mL
same,GSH Lung tissue,rat COPD model [3]; high dose group,128.45 ± 24.09 µmol/L
same,SOD Lung tissue,rat COPD model [3]; high dose group,72.36 ± 14.55 U/mL
same,SOD Serum,rat COPD model [3]; high dose group,116.34 ± 27.86 U/mL
same,GSH Lung tissue,rat COPD model [3]; low dose group,102.45 ± 18.97 µmol/L
same,GSH Serum,rat COPD model [3]; low dose group,134.21 ± 26.45 µmol/L
same,SOD Lung tissue,rat COPD model [3]; low dose group,55.67 ± 13.29 U/mL
same,SOD Serum,rat COPD model [3]; low dose group,82.67 ± 19.45 U/mL
same,GSH Lung tissue,rat COPD model [3]; medium dose group,116.22 ± 22.73 µmol/L
same,GSH Serum,rat COPD model [3]; medium dose group,159.33 ± 30.20 µmol/L
same,SOD Lung tissue,rat COPD model [3]; medium dose group,65.44 ± 17.33 U/mL
same,SOD Serum,rat COPD model [3]; medium dose group,93.20 ± 20.77 U/mL
S-(carboxymethyl)-D-cysteine arginine salt monohydrate [D-arginine],IL-6 Lung tissue,rat COPD model [1]; high dose group,13.69 ± 4.33 pg/mL
same,IL-6 Serum,rat COPD model [1]; high dose group,8.70 ± 2.35 pg/mL
same,IL-8 Lung tissue,rat COPD model [1]; high dose group,10.82 ± 2.59 pg/mL
same,IL-8 Serum,rat COPD model [1]; high dose group,7.74 ± 1.28 pg/mL
same,TNF-α Lung tissue,rat COPD model [1]; high dose group,24.40 ± 6.09 pg/mL
same,TNF-α Serum,rat COPD model [1]; high dose group,19.73 ± 6.08 g* pg/mL
same,IL-6 Lung tissue,rat COPD model [1]; low dose group,17.03 ± 7.27 pg/mL
same,IL-6 Serum,rat COPD model [1]; low dose group,11.07 ± 2.60 pg/mL
same,IL-8 Lung tissue,rat COPD model [1]; low dose group,12.69 ± 2.33 pg/mL
same,IL-8 Serum,rat COPD model [1]; low dose group,9.70 ± 1.35 pg/mL
same,TNF-α Lung tissue,rat COPD model [1]; low dose group,30.10 ± 9.44 pg/mL
same,TNF-α Serum,rat COPD model [1]; low dose group,23.12 ± 4.20 pg/mL
same,IL-6 Lung tissue,rat COPD model [1]; medium dose group,15.44 ± 5.64 pg/mL
same,IL-6 Serum,rat COPD model [1]; medium dose group,10.38 ± 3.54 pg/mL
same,IL-8 Lung tissue,rat COPD model [1]; medium dose group,12.01 ± 2.11 pg/mL
same,IL-8 Serum,rat COPD model [1]; medium dose group,8.26 ± 2.67 pg/mL
same,TNF-α Lung tissue,rat COPD model [1]; medium dose group,28.28 ± 13.57 pg/mL
same,TNF-α Serum,rat COPD model [1]; medium dose group,20.09 ± 5.10 pg/mL
same,LPO Lung tissue,rat COPD model [2]; high dose group,18.74 ± 3.47 nmol/mL
same,LPO Serum,rat COPD model [2]; high dose group,5.26 ± 0.88 nmol/mL
same,MDA Lung tissue,rat COPD model [2]; high dose group,4.58 ± 0.66 µmol/mL
same,LPO Lung tissue,rat COPD model [2]; low dose group,21.98 ± 2.16 nmol/mL
same,LPO Serum,rat COPD model [2]; low dose group,6.32 ± 1.34 nmol/mL
same,MDA Lung tissue,rat COPD model [2]; low dose group,5.21 ± 0.72 µmol/mL
same,MDA Serum,rat COPD model [2]; low dose group,8.66 ± 2.20 µmol/mL
same,LPO Lung tissue,rat COPD model [2]; medium dose group,20.62 ± 3.65 nmol/mL
same,LPO Serum,rat COPD model [2]; medium dose group,5.80 ± 1.07 nmol/mL
same,MDA Lung tissue,rat COPD model [2]; medium dose group,5.01 ± 0.41 µmol/mL
same,GSH Lung tissue,rat COPD model [3]; high dose group,114.54 ± 20.57 µmol/L
same,GSH Serum,rat COPD model [3]; high dose group,144.17 ± 27.40 µmol/L
same,SOD Lung tissue,rat COPD model [3]; high dose group,62.24 ± 16.47 U/mL
same,SOD Serum,rat COPD model [3]; high dose group,92.32 ± 20.65 U/mL
same,GSH Lung tissue,rat COPD model [3]; low dose group,92.23 ± 13.38 µmol/L
same,SOD Lung tissue,rat COPD model [3]; low dose group,46.86 ± 19.25 U/mL
same,SOD Serum,rat COPD model [3]; low dose group,74.53 ± 8.70 U/mL
same,GSH Lung tissue,rat COPD model [3]; medium dose group,107.77 ± 18.26 µmol/L
same,SOD Lung tissue,rat COPD model [3]; medium dose group,54.4 ± 12.18 U/mL
same,SOD Serum,rat COPD model [3]; medium dose group,83.74 ± 15.27 U/mL
